Read-outs that look alike come from different tables or passages of the source.
Tests used:
Botrytis cinerea = assay: Inhibition of spore germination, Eppendorf tube assay (Examples I and II); format: cell-based; conditions: for expected percent inhibition for an additive response (Limpel's formula) at 0.5 µg/mL: read-out: Ee, expected effect from an additive response according to Limpel's formula, percent inhibition; for ED50 of fungicide (dose effective for 50% inhibition): Table 9
B. cinerea strain 12 = assay: Inhibition of spore germination, ELISA plate assay (Examples III-XVI, XVIII); format: cell-based, Botrytis cinerea; conditions: Table 21; concentration of miconazole for 50% inhibition, alone or with enzyme at its ED10 concentration
Method: (§1) The concentration where fungal cell wall degrading enzyme individually provides a specified percentage fungal inhibition or where antifungal fungal cell membrane affecting compound individually provides a specific percentage fungal inhibition can be determined as follows: Assays are performed under sterile conditions. Equal volumes of spore suspensions, 3× potato dextrose broth, and the test solution or suspension in 5 mM Tris-HCl (pH 6.0) or 5 mM potassium phosphate buffer (pH 6.7) are mixed. The control is the same as the test solution except for the control the antifungal agent is omitted. The assay mixtures (total volume 45 or 30 μl) are incubated on flat-bottomed ELISA plates, each containing 96 wells, with 2,000 to 3,000 spores per well, at 25° C. After 22 to 30 hours, the plates are placed under an inverted microscope. The percentage of conidia germinating is determined as the percentage of the first 100 spores randomly found in a well. In addition, the lengths of 20 germ tubes are measured and averaged. All experiments are performed twice, with three replicates for each treatment. The inhibition values obtained in the two experiments are combined and averaged, and standard deviations are calculated from the 6 data points. The values obtained for the control are taken as 0% inhibition and all other values are divided by the values obtained for the control and multiplied by 100% to obtain percent inhibition. Determination of concentration corresponding to a particular percent inhibition is carried out by subjecting dose-response curves to regression analysis by using a binomial regression of the third order, with R^2 ranging between 0.95 and 0.99.
(§2) Assays were carried out by the procedure described in the summary of the invention section. Dose response curves were obtained by probit analysis of data collected from two separate experiments with each experiment involving three treatment replicates.
Each of 8 antifungal fungal cell membrane affecting compounds were used in combination with each of 8 or 6 fungal cell wall degrading enzymes to provide 50% inhibition (ED50) of B. cinerea strain 12 spore germination. Each fungal cell wall degrading enzyme was used at a concentration giving 10% inhibition of spore germination when used alone in combination with an amount of antifungal fungal cell membrane affecting compound so the combination gave 50% inhibition of spore germination.
(§3) Dose response curves were determined for each antifungal fungal cell membrane affecting compound and for each fungal cell wall degrading enzyme singly. Then each fungal cell wall degrading enzyme at a concentration giving 10% inhibition when used alone was combined with increasing amounts of antifungal fungal cell membrane affecting compound. Then the concentration of antifungal fungal cell membrane affecting compound causing the ED50 for each combination was calculated by probit analysis of data collected from two experiments with three treatment replicates for each experiment. Assays for inhibition of spore germination were carried out as described in the summary of invention section above.
The relative level of synergism (RS below) for each combination was calculated by applying Limpel's formula: Ee=X+Y−(XY/100) as described in Richer, D. L, Pestic. Sci. 19, 309-315, 1987. In Limpel's formula, X and Y are the percentages of inhibition relative to each compound used alone and Ee is the expected effect for an additional (non-synergistic) effect. If the combination of the two agents produces an observed effect (Eo) greater than Ee, synergism exists, and as the difference between Eo and Ee increases, the level of synergism is greater. […]

[1] = test system: Fusarium oxysporum strain FOP1; assay: Inhibition of spore germination, ELISA plate assay (Examples V-XIV, XVII); format: cell-based; conditions: Table 29; concentration of miconazole for 50% inhibition, alone or with enzyme at its ED10 concentration
Method: as §1, §2, §3
The relative level of synergism (RS below) for each combination was calculated by applying Limpel's formula: Ee=X+Y−(XY/100) as described in Richer, D. L, Pestic. Sci. 19, 309-315, 1987. In Limpel's formula, X and Y are the percentages of inhibition relative to each compound used alone and Ee is the expected effect for an additional (non-synergistic) effect. If the combination of the two agents produces an observed effect (Eo) greater than Ee, synergism exists, and as the difference between Eo and Ee increases, the level of synergism is greater. In this experiment, the X value (percentage inhibition by fungal cell wall degrading enzyme when used alone was chosen to be 10 (10% inhibition of spore germination when used alone) and the observed effect, Eo, was 50 (i.e., 50% inhibition of spore germination). The Y values were obtained from the determined concentrations of antifungal cell membrane affecting compound causing the ED50 for a combination and the dose response curves for the antifungal cell membrane affecting compound used alone—i.e., the Y value was the percent inhibition for the antifungal fungal cell membrane affecting compound when used alone for the concentration of antifungal fungal cell membrane affecting compound that was determined to cause the ED50 for the combination. Ee values were then calculated from Limpel's formula. […]

[2] = Solubility, guidance for forming solutions
Source text: Compositions for use in the systems herein are readily formulated by admixing the fungal cell wall degrading enzymes and the antifungal fungal cell membrane affecting compounds with non-toxic carriers appropriate for the particular use for a composition, e.g., agriculturally acceptable carriers for agricultural uses and pharmaceutically acceptable carriers for medicinal uses. They may be formulated as liquids (solutions or suspensions) or as solids. Since the fungal cell wall degrading enzymes need free water for activity, water must be present at the time of function. […] Water is a preferred vehicle where components are soluble in it. […] Organic solvents can also be used and may be required in some cases if a solution is desired. Guidance for forming solutions follows. […] Suspension can also be employed.

For `Clc1ccc(COC(Cn2ccnc2)c2ccc(Cl)cc2Cl)c(Cl)c1` (stereo not drawn) [Miconazole, miconazole], the inhibition at 0.5 µg/mL (Botrytis cinerea; Botrytis cinerea, Table 4, enzyme 0 μg ml^−1 (fungicide alone), flusilazole 5 ng ml^−1, miconazole 0.5 μg ml^−1, read-out: % inhibition) was 19%, the inhibition at 0.5 µg/mL (Botrytis cinerea; Botrytis cinerea, Table 5, endochitinase from G. virens strain 41 at 25 μg ml^−1, with flusilazole 5 ng ml^−1, miconazole 0.5 μg ml^−1 or none (enzyme alone), read-out: % inhibition) was 99% and the inhibition at 0.5 µg/mL (Botrytis cinerea; Botrytis cinerea, Table 5, enzyme 0 μg ml^−1 (fungicide alone), flusilazole 5 ng ml^−1, miconazole 0.5 μg ml^−1, read-out: % inhibition) was 19%. For the same molecule, the inhibition at 0.5 µg/mL (Botrytis cinerea; Botrytis cinerea, Table 6, enzyme 0 μg ml^−1 (fungicide alone), flusilazole 5 ng ml^−1, miconazole 0.5 μg ml^−1, read-out: % inhibition) was 19%, the inhibition at 0.5 µg/mL (Botrytis cinerea; Botrytis cinerea, Table 7, enzyme 0 μg ml^−1 (fungicide alone), flusilazole 5 ng ml^−1, miconazole 0.5 μg ml^−1, read-out: % inhibition) was 19% and the expected percent inhibition for an additive response (Limpel's formula) at 0.5 µg/mL (Botrytis cinerea; Botrytis cinerea, with Chitob. (P1) 25 μg ml^−1, flusilazole 5 ng ml^−1, miconazole 0.5 μg ml^−1) was 27.9%. It also gave an inhibition at 0.5 µg/mL (Botrytis cinerea; Botrytis cinerea, with Chitob. (P1) 25 μg ml^−1, flusilazole 5 ng ml^−1, miconazole 0.5 μg ml^−1, read-out: Io, percent inhibition observed) of 85%, an expected percent inhibition for an additive response (Limpel's formula) at 0.5 µg/mL (Botrytis cinerea; Botrytis cinerea, with Endoc. (41) 25 pg ml^−1 (so in the source), flusilazole 5 ng ml^−1, miconazole 0.5 μg ml^−1) of 19% and an inhibition at 0.5 µg/mL (Botrytis cinerea; Botrytis cinerea, with Endoc. (41) 25 pg ml^−1 (so in the source), flusilazole 5 ng ml^−1, miconazole 0.5 μg ml^−1, read-out: Io, percent inhibition observed) of 66%. The expected percent inhibition for an additive response (Limpel's formula) at 0.5 µg/mL (Botrytis cinerea; Botrytis cinerea, with Endoc. (P1) 25 μg ml^−1, flusilazole 5 ng ml^−1, miconazole 0.5 μg ml^−1) was 42.5%, the inhibition at 0.5 µg/mL (Botrytis cinerea; Botrytis cinerea, with Endoc. (P1) 25 μg ml^−1, flusilazole 5 ng ml^−1, miconazole 0.5 μg ml^−1, read-out: Io, percent inhibition observed) was 100% and the expected percent inhibition for an additive response (Limpel's formula) at 0.5 µg/mL (Botrytis cinerea; Botrytis cinerea, with Glucan. (P1) 25 μg ml^−1, flusilazole 5 ng ml^−1, miconazole 0.5 μg ml^−1) was 23%. It also gave an inhibition at 0.5 µg/mL (Botrytis cinerea; Botrytis cinerea, with Glucan. (P1) 25 μg ml^−1, flusilazole 5 ng ml^−1, miconazole 0.5 μg ml^−1, read-out: Io, percent inhibition observed) of 70%, an inhibition at 0.5 µg/mL (Botrytis cinerea; Table 4, endochitinase from T. harzianum strain P1 at 75 μg ml^−1, with flusilazole 5 ng ml^−1, miconazole 0.5 μg ml^−1 or none (enzyme alone), read-out: % inhibition) of 100% and an inhibition at 0.5 µg/mL (Botrytis cinerea; Table 6, chitobiosidase from T. harzianum strain P1 at 75 μg ml^−1, with flusilazole 5 ng ml^−1, miconazole 0.5 μg ml^−1 or none (enzyme alone), read-out: % inhibition) of 100%. For the same molecule, the inhibition at 0.5 µg/mL (Botrytis cinerea; Table 7, glucan 1,3-β-glucosidase from T. harzianum strain P1 at 100 μg ml^−1, with flusilazole 5 ng ml^−1, miconazole 0.5 μg ml^−1 or none (enzyme alone), read-out: % inhibition) was 100%, the “ED50 of fungicide (dose effective for 50% inhibition)” value (Botrytis cinerea; no endochitinase (0 μg ml^−1)) was 3.0 µg/mL and the “ED50 of fungicide (dose effective for 50% inhibition)” value (Botrytis cinerea; with endochitinase from T. harzianum strain P1 at 10 μg ml^−1) was 0.06 µg/mL. For the same molecule, the “ED50 of fungicide (dose effective for 50% inhibition)” value (Botrytis cinerea; with endochitinase from T. harzianum strain P1 at 25 μg ml^−1) was 0.04 µg/mL, the ED50 of fungicide (Botrytis cinerea; Table 10, no chitobiosidase (0 μg ml^−1)) was 3.0 µg/mL and the ED50 of fungicide (Botrytis cinerea; Table 10, with chitobiosidase from T. harzianum strain P1 at 25 μg ml^−1) was 0.06 µg/mL. The ED50 of fungicide (Botrytis cinerea; Table 10, with chitobiosidase from T. harzianum strain P1 at 50 μg ml^−1) was 0.045 µg/mL, the ED50 of fungicide (Botrytis cinerea; Table 10, with chitobiosidase from T. harzianum strain P1 at 75 μg ml^−1) was 0.04 µg/mL and the ED50 of fungicide (Botrytis cinerea; Table 10, with chitobiosidase from T. harzianum strain P1 at 100 μg ml^−1) was 0.03 µg/mL. For the same molecule, the ED50 of fungicide (Botrytis cinerea; Table 11, no glucosidase (0 μg ml^−1)) was 3.0 µg/mL, the ED50 of fungicide (Botrytis cinerea; Table 11, with glucan 1,3-β-glucosidase from T. harzianum strain P1 at 25 μg ml^−1) was 0.27 µg/mL and the ED50 of fungicide (Botrytis cinerea; Table 11, with glucan 1,3-β-glucosidase from T. harzianum strain P1 at 50 μg ml^−1) was 0.04 µg/mL. It also gave an ED50 of fungicide (Botrytis cinerea; Table 11, with glucan 1,3-β-glucosidase from T. harzianum strain P1 at 75 μg ml^−1) of 0.0018 µg/mL, an ED50 of fungicide (Botrytis cinerea; Table 12, no endochitinase (0 μg ml^−1)) of 3.0 µg/mL and an ED50 of fungicide (Botrytis cinerea; Table 12, with endochitinase from G. virens strain 41 at 25 μg ml^−1) of 0.092 µg/mL. It also gave an ED50 of fungicide (Botrytis cinerea; Table 12, with endochitinase from G. virens strain 41 at 50 μg ml^−1) of 0.06 µg/mL, an ED50 of fungicide (Botrytis cinerea; Table 12, with endochitinase from G. virens strain 41 at 75 μg ml^−1) of 0.04 µg/mL and an ED50 of fungicide (Botrytis cinerea; Table 12, with endochitinase from G. virens strain 41 at 100 μg ml^−1) of 0.025 µg/mL. The ED50 (B. cinerea strain 12) was 3.0 (2-4) ng ml^−1, the ED50 [1] was 5.0 (4.5-5.5) ng ml^−1 and the “solubility (solvent in which the substance dissolves)” value [2] was “dissolves in 50% (v:v) ethanol”.
